Tests used:
CYP2D6 = molecular target: T1, CYP2D6 (Homo sapiens, UniProt P10635); experiment: CYP inhibition test, O-demethylation of dextromethorphan; assay type: in vitro ADME; conditions: pooled human liver microsome; one of 5 kinds
T1 construct: enzyme: pooled human liver microsome 0.2 mg protein/mL; from tissue; host or cells: pooled human liver microsomes
Excerpt: O-de-ethylation of 7-ethoxyresorufin (CYP1A2), methyl-hydroxylation of tolbutamide (CYP2C9), 4′-hydroxylation of mephenyloin (CYP2C19), O-demethylation of dextromethorphan (CYP2D6), and hydroxylation of terfenadine (CYP3A4), which are typical substrate for metabolic reactions of human main CYP5 molecular species (CYP1A2, 2C9, 2C19, 2D6, and 3A4), were adopted as indexes.
The reaction conditions are as follows: substrate: 0.5 μmol/L of ethoxyresorufin (CYP1A2), 100 μmol/L of tolbutamide (CYP2C9), 50 μmol/L of S-mephenyloin (CYP2C19), […] of dextromethorphan (CYP2D6), and 1 μmol/L of terfenadine (CYP3A4); reaction time; 15 minutes; reaction temperature: 37° C.; enzyme: pooled human liver microsome 0.2 mg protein/mL; test drug concentration: 1, 5, 10, and 20 μmol/L (4 points).
In a 96-well plate, as a reaction solution, five kinds of substrates, a human liver microsome, and a test drug were added to 50 mmol/L Hepes buffer solution in the aforementioned ratio. A coenzyme NADPH was added to start a metabolic reaction, which is an index. After reacting at 37° C. for 15 minutes, a solution of methanol/acetonitrile (1/1 (v/v)) was added to quench the reaction. After centrifugation at 3000 rpm for 15 minutes, resorufin (CYP1A2 metabolite) in the supernatant was quantitated with a fluorescence multilabel counter, and hydroxylated tolbutamide (CYP2C9 metabolite), 4′-hydroxylated mephenyloin (CYP2C19 metabolite), […], terfenadine in alcohol form (CYP3A4 metabolite) were quantitated with LC/MS/MS.
The case wherein only DMSO (a solvent which dissolved a drug) was added to a reaction system was defined as a control (100%). When a test drug solution was added, the remaining activity (%) at each concentration was calculated, and then IC50 was calculated with a concentration and an inhibition ratio by an inverse estimation using a logistic model.

[1] = Solubility test in artificial intestinal juice pH 6.8; assay type: physicochemical; conditions: kinetic from dmso stock, artificial intestinal juice pH 6.8, 1% DMSO, 25° C.
Experimental: The solubility of a compound was determined under a condition in which 1% DMSO was added. 10 mmol/L compound solution was prepared using DMSO, and then 6 μL of the compound solution was added to 594 μL of artificial intestinal juice in pH 6.8 (to 250 mL of 0.2 mol/L potassium dihydrogen phosphate reagent solution was added 118 mL of 0.2 mol/L NaOH reagent solution and water to provide a final volume of 1000 mL). After standing at 25° C. for 16 hours, the mixed solution was filtered with suction. The filtrate was diluted twice with methanol/water (1/1), and then a concentration in the filtration was measured with HPLC or LC/MS/MS by the absolute calibration method.

T1 sequence (P10635 whole entry): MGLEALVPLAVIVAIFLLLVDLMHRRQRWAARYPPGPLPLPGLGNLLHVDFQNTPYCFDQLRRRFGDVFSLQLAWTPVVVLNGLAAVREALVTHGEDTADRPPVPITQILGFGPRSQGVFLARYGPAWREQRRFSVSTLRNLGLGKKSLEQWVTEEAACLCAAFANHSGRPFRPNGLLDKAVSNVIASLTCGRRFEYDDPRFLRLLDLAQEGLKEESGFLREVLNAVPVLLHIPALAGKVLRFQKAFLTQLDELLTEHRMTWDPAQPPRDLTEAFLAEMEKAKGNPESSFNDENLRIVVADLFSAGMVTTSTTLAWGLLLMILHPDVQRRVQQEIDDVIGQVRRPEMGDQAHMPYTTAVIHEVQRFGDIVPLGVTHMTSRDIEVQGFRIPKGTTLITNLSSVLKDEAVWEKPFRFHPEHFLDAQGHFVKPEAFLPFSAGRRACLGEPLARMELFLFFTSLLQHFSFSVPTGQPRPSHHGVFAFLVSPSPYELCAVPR

IC50 (CYP2D6): > 20 µM
solubility at 16 h [1]: > 50 µM
SMILES: O=C(O)COc1cccc(Nc2ccc3c(n2)N(C(=O)Nc2ccccc2)CCO3)c1 [Compound I-240]

Reference: patent publication US20110172217A1, “RING-FUSED MORPHOLINE DERIVATIVE HAVING PI3K-INHIBITING ACTIVITY” (Shionogi & Co., Ltd., priority 2008, published 2011)
